Data: patent US4209441A, “Anti-gastric secretion polypeptide” (American Home Products Corporation, priority 1979, dated 1980)
Structures can show the parent of a compound that is named as a salt. Bridge positions count the residues as written; N and C are the ends. Square brackets hold non-standard residues; d marks the D form. Peptide text beside a SMILES is read from it.

Columns and labels:
Format in all cases: in vivo, rat
[1] = test system: gastric acid secretion (total acid output); test: Anti-secretory activity in pylorus-ligated rats (total acid output over four hours); conditions: for Percentage Inhibition (of Total Acid Output): i.d. administration, pylorus-ligated rats, 4 hr, versus control group
Protocol: The polypeptide of this invention was tested and found active parenterally (s.c.) in the following scientifically recognized, standard test for anti-secretory activity;
Male Charles River rats of Sprague-Dawley strain and 190 to 240 gm. body weight are food deprived for 24 hr. with water ad libitum until the test. Groups of ten rats each are assigned to either control or drug treatment. Pyloric ligation was performed under ether anesthesia through a midline laparotomy, and either control vehicle (0.25 methylcellulose) or drug in control vehicle was administered intraduodenally. The rats are sacrificed by CO2 asphyxiation four hours after pyloric ligation. The stomachs are removed and the gastric contents emptied into graduated centrifuge tubes. The gastric samples are centrifuged for 20 min. and those obviously contaminated by food, blood or feces are discarded. The volume of gastric fluid is recorded and the acid concentration of 1.0 ml. sample aliquots is measured by electrometric titration to pH 7.0 with 0.1 N NaOH. The calculated product of gastric volume (ml/4 hr.) and acid concentration (mEq/L) estimates the total acid output (TAO, mEq/4 hr.) over the four-hour test period.
An index of drug gastric antisecretory activity is reported at the end of the example illustrating its production. The results, expressed as percentage inhibition, show the reduction of acid secretion in drug-treated compared to control groups, based upon i.d. administration of 2 mg/kg and 0.5 mg/kg of the tested compound. In addition, the effect of the polypeptide in the control of insulin and glucagon secretion is reported at a dose of 750 micrograms per kilogram.

glucagon = test: Suppression of glucagon in arginine-stimulated rats; conditions: for reduction in glucagon in vivo (in words): tested in vivo by standard methods
Protocol: (§1) Albino male rats are administered Nembutol intraperitoneally at a dose of 50 mg/kg. Fifteen minutes later a subcutaneous injection of the test compound or physiological saline is administered. Ten minutes later 0.5 ml. of arginine (300 mg/ml, pH 7.2) is injected into the heart. Five minutes after receipt of the arginine the rats are decapitated and blood is collected into Trasylol-EDTA. An appropriate aliquot is assayed for insulin and glucagon.

insulin = test: Suppression of insulin in arginine-stimulated rats; conditions: for reduction in insulin in vivo (in words): tested in vivo by standard methods
Protocol: as §1

[2] = listed as compound of this invention
[3] = listed as polypeptide of the invention

Compound	Percentage Inhibition (of Total Acid Output) ([1]; 0.5 mg/kg) [%]	Percentage Inhibition (of Total Acid Output) ([1]; 2 mg/kg) [%]	anti-secretory activity (in words) ([1]; parenterally (s.c.))	Glucagon (glucagon; 750 μg/kg subcutaneous, arginine-stimulated rats, blood 15 min after dosing, control 55 ± 5) [pg/mL]	reduction in glucagon in vivo (in words) (glucagon; [2])	reduction in glucagon in vivo (in words) (glucagon; [3])	Insulin (insulin; 750 μg/kg subcutaneous, arginine-stimulated rats, blood 15 min after dosing, control 283 ± 28) [μU/ml]	reduction in insulin in vivo (in words) (insulin; [2])	reduction in insulin in vivo (in words) (insulin; [3])	dose that effectively inhibits secretion of glucagon (glucagon; same test procedure)	dose that effectively inhibits secretion of insulin (insulin; same test procedure)
C[C@H](N)C(=O)NCC(=O)N[C@H]1CSSC[C@@H](C(=O)O)NC(=O)[C@H](CO)NC(=O)[C@H]([C@@H](C)O)NC(=O)[C@H](Cc2ccc(O)cc2)NC(=O)[C@H]([C@@H](C)O)NC(=O)[C@H](CCCCN)NC(=O)[C@@H](Cc2c[nH]c3ccccc23)NC(=O)[C@H](Cc2ccccc2)NC(=O)[C@H](Cc2ccccc2)NC(=O)[C@H](CC(N)=O)NC(=O)[C@H](CCCCN)NC1=O [Example 5, L-alanylglycyl-L-cysteinyl-L-lysyl-L-asparaginyl-L-phenylalanyl-L-phenylalanyl-D-tryptophyl-L-lysyl-L-threonyl-L-tyrosyl-L-threonyl-L-seryl-L-cysteine cyclic (3-14)-disulfide, triacetate-salt] (H-AGCKNFF[dW]KTYTSC-OH; disulfide 3-14)	38	68	active	35 ± 9	no meaningful reduction	without materially affecting	238 ± 42	no meaningful reduction	without materially affecting	–	–
C[C@H](N)C(=O)NCC(=O)N[C@H]1CSSC[C@@H](C(=O)O)NC(=O)[C@H](CO)NC(=O)[C@H]([C@@H](C)O)NC(=O)[C@H](Cc2ccccc2)NC(=O)[C@H]([C@@H](C)O)NC(=O)[C@H](CCCCN)NC(=O)[C@H](Cc2c[nH]c3ccccc23)NC(=O)[C@H](Cc2ccccc2)NC(=O)[C@H](Cc2ccccc2)NC(=O)[C@H](CC(N)=O)NC(=O)[C@H](CCCCN)NC1=O [Somatostatin, reference compound]	–	–	–	–	–	–	–	–	–	about 10 micrograms per kilogram	about 10 micrograms per kilogram
